Patent US7772179B2, “Photodynamic therapy using chemiluminescence and a ligand-photosensitiser conjugate” (priority 2005, dated 2010)

Tests used:
FL cells [1] = settings: in the dark
FL cells [2] = assay: LTC cytotoxicity assay (PDT with ambient fluorescent light), trypan blue exclusion; assay type: cell-based
Description: (§1) (C); 0.5-1×10^5 cells/ml were cultured for 2 hr in the dark in medium alone or containing Hp or Tf-Hp (0-3 μM), washed, exposed to ambient fluorescent light for 16 hrs at room temperature and then re-cultured in full medium for 24 hrs. Cell viability was assessed by trypan blue exclusion. The data represent the mean and standard deviation from at least 3 experiments;
(§2) Late log-phase cells were washed with DMEM pre-warmed to 37° C. and cultured at 0.5-1×10^5 cells/ml either alone or with increasing concentrations of Tf-Hp LTC for 2 hrs at 37° C. in 6% CO2. Cells were then washed with DMEM, exposed to ambient fluorescent light (fluence rate=0.5 mW/cm^2) for 12-16 hours and then re-cultured in full medium for 24 hrs. […] Experiments were repeated at least three times.

K562 cells = assay: as above; assay type: cell-based, Human; settings: K-562 cells, external ambient fluorescent light
Description: as §1, §2

In the case of `Nc1cccc2c(=O)[nH][nH]c(=O)c12` [luminol, 5-amino-2-3-dihydro-1,4-phtalazinedione], the “cytotoxicity, luminol alone” value (FL cells [1]; 10 μM luminol, no Ps) is reported as “about 15%”.

In the case of `CC1=C(CCC(=O)O)c2cc3[nH]c(cc4nc(cc5[nH]c(cc1n2)c(C)c5C(C)O)C(C)=C4C(C)O)c(C)c3CCC(=O)O` (stereo not drawn) [Hp, hematoporphyrin], the “maximum cytotoxicity (LDMAX)” value (FL cells [2]; FL cells, external ambient fluorescent light) is reported as 90%, the “sensitivity of FL cells relative to K-562 at LDMAX” value (FL cells [2]; free Hp treatment, FL versus K-562) is reported as 16.6 and the “maximum activity (cytotoxicity)” value (FL cells [2]; optimization of the LTC cytotoxicity assay, about 2 hr exposure, cell line not stated) is reported as 24%. The “maximum cytotoxicity (LDMAX)” value (K562 cells) was 90% and the “maximum cytotoxicity together with luminol” value (FL cells [1]; together with 10 μM luminol, no external light) was 30%.
